In ChEMBL document CHEMBL1146791, “Synthesis of nitrated indenoisoquinolines as topoisomerase I inhibitors” (2004):

Tests used:
DU-145 = assay: Cytotoxicity against DU-145 human prostate cancer cell line was determined; type: functional
HCT-116 = assay: Cytotoxicity against HCT116 human colon cancer cell line was determined; type: functional
HOP-62 = assay: Cytotoxicity against HOP-62 human lung cancer cell line was determined; type: functional
SN12C = assay: Cytotoxicity against SN12C human renal cancer cell line was determined; type: functional
SF-268 = assay: Cytotoxicity against SF-268 human CNS cancer cell line was determined; type: functional
UACC-62 = assay: Cytotoxicity against UACC-62 human melanoma cancer cell line was determined; type: functional
[1] = molecular target: T1, DNA topoisomerase 1 (Homo sapiens) (UniProt P11387); assay: Inhibitory activity against DNA topoisomerase I cleavage was determined at a concentration ranging up to 10 uM
T1 sequence (whole entry): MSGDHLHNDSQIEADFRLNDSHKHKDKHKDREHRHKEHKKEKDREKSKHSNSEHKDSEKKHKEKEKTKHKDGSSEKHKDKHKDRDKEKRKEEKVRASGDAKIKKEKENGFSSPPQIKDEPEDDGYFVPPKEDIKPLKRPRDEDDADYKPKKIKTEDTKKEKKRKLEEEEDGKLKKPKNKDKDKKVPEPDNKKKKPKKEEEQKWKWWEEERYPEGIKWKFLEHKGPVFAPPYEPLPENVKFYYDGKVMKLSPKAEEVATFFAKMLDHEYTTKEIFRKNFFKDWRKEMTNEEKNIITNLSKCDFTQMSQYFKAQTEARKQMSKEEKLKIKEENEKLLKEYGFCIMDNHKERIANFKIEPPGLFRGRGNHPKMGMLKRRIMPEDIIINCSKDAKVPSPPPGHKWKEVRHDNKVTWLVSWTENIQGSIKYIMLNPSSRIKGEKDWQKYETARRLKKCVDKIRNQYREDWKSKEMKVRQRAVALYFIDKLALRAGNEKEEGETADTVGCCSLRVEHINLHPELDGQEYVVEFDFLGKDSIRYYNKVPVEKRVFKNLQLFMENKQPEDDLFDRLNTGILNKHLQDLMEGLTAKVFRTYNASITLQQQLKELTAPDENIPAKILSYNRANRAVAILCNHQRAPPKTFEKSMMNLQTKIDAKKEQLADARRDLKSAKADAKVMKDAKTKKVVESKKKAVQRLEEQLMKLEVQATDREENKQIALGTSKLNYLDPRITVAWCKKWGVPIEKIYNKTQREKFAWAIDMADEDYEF

MDA-MB-435 = assay: Cytotoxicity against MDA-MB-435 human breast cancer cell line was determined; type: functional
OVCAR-3 = assay: Cytotoxicity against OVCAR-3 human ovarian cancer cell line was determined; type: functional
[2] = molecular target: T1, DNA topoisomerase 1 (Homo sapiens); assay: Inhibitory activity against DNA topoisomerase I cleavage was determined at a concentration ranging up to 10uM; '+' indicates weak activity
[3] = molecular target: T1, DNA topoisomerase 1 (Homo sapiens); assay: Inhibitory activity against DNA topoisomerase I cleavage was determined at a concentration ranging up to 10 uM; ''+/-'' No description in the article
[4] = molecular target: T1, DNA topoisomerase 1 (Homo sapiens); assay: Inhibitory activity against DNA topoisomerase I cleavage was determined at a concentration ranging uM camptothecin
[5] = molecular target: T1, DNA topoisomerase 1 (Homo sapiens); assay: Inhibitory activity against DNA topoisomerase I cleavage was determined at a concentration ranging up to 10 uM; NT- Not tested
[6] = molecular target: T1, DNA topoisomerase 1 (Homo sapiens); assay: Inhibitory activity against DNA topoisomerase I cleavage was determined at a concentration ranging up to 10 uM; ''+++'' indicates greater activity than the parent compound 25; design: scale not given here

| Activity [1] | Activity [2] | Activity [3] | Activity [4] | Activity [5] | Activity [6] | Compound | GI50 (DU-145) | GI50 (HCT-116) | GI50 (HOP-62) | GI50 (SN12C) | GI50 (SF-268) | GI50 (UACC-62) | GI50 (MDA-MB-435) | GI50 (OVCAR-3) |
| --- | --- | --- | --- | --- | --- | --- | --- | --- | --- | --- | --- | --- | --- | --- |
|  |  |  |  |  |  | NCCCn1c2c(c3ccc([N+](=O)[O-])cc3c1=O)C(=O)c1ccccc1-2 | 148 nM | 85 nM | 275 nM | 102 nM | 302 nM | 372 nM |  |  |
| 0 |  |  |  |  |  | Nc1ccc2c3c(n(CCCCl)c(=O)c2c1)-c1cc2c(cc1C3=O)OCO2 |  |  |  | > 100000 nM | > 100000 nM | > 100000 nM | > 100000 nM | > 100000 nM |
|  |  |  |  |  |  | [N-]=[N+]=NCCCn1c2c(c3ccc([N+](=O)[O-])cc3c1=O)C(=O)c1ccccc1-2 | > 100000 nM | 8130 nM | > 100000 nM | 72400 nM | 79400 nM | 44700 nM | > 100000 nM |  |
|  | weak activity |  |  |  |  | NCCCn1c2c(c3ccccc3c1=O)C(=O)c1cc3c(cc1-2)OCO3 |  |  |  |  |  |  |  |  |
|  |  | +/- |  |  |  | O=C1c2ccccc2-c2c1c1ccccc1c(=O)n2CCCBr |  |  |  |  | 4610 nM |  |  |  |
|  |  |  | +++ |  |  | NCCCn1c2c(c3ccc([N+](=O)[O-])cc3c1=O)C(=O)c1cc3c(cc1-2)OCO3 | < 10 nM | < 10 nM | < 10 nM | < 10 nM | < 10 nM | 17 nM | 25 nM | 302 nM |
|  | weak activity |  |  |  |  | COc1cc2c(cc1OC)[C@H]1C(=O)c3cc4c(cc3[C@H]1N(CCCBr)C2=O)OCO4 | 30 nM | 70 nM | 120 nM | 30 nM |  | 50 nM | 150 nM | 400 nM |
|  |  |  |  | 0 |  | O=C1c2ccccc2-c2c1c1ccc([N+](=O)[O-])cc1c(=O)n2CCCBr | > 100000 nM | 3450 nM |  | > 100000 nM | > 100000 nM | > 100000 nM | > 100000 nM | > 100000 nM |
|  |  |  |  |  |  | COc1cc2c3c(n(C)c(=O)c2cc1OC)-c1cc2c(cc1C3=O)OCO2 | 37000 nM | 35000 nM | 1300 nM | 68000 nM |  | 4200 nM | 96000 nM |  |
|  |  |  | +++ |  |  | [N-]=[N+]=NCCCn1c2c(c3ccc([N+](=O)[O-])cc3c1=O)C(=O)c1cc3c(cc1-2)OCO3 | < 10 nM | < 10 nM | < 10 nM | < 10 nM | < 10 nM | < 10 nM | < 10 nM | < 10 nM |
|  | weak activity |  |  |  |  | O=C1c2cc3c(cc2[C@@H]2[C@H]1c1ccc([N+](=O)[O-])cc1C(=O)N2CCCCl)OCO3 | < 10 nM | < 10 nM | < 10 nM | < 10 nM | < 10 nM | < 10 nM | < 10 nM | < 10 nM |
|  |  |  |  |  | ++ | COc1cc2c3c(n(CCCN)c(=O)c2cc1OC)-c1cc2c(cc1C3=O)OCO2 |  |  |  |  |  |  |  |  |
|  |  |  |  |  | ++ | NCCCn1c2c(c3ccccc3c1=O)C(=O)c1ccccc1-2 | 220 nM | 180 nM |  | 160 nM |  | 260 nM | 780 nM | 1380 nM |
|  |  |  |  |  |  | [N-]=[N+]=NCCCn1c2c(c3ccccc3c1=O)C(=O)c1ccccc1-2 | 44700 nM | 4900 nM | 7590 nM | 25100 nM |  | 19500 nM | 7760 nM | 7940 nM |
|  |  |  |  |  | ++ | O=C1c2cc3c(cc2-c2c1c1ccc([N+](=O)[O-])cc1c(=O)n2CCCCl)OCO3 | 98 nM | 2400 nM | 410 nM | 132 nM | 148 nM | 229 nM | 1820 nM | 9120 nM |
|  |  |  |  |  |  | O=C1c2ccccc2-c2c1c1ccc([N+](=O)[O-])cc1c(=O)n2CCCCl | 40700 nM | 3630 nM | 43700 nM | 26900 nM | 23400 nM | 20400 nM | 31600 nM | 4900 nM |
|  | weak activity |  |  |  |  | O=C1c2cc3c(cc2[C@@H]2[C@H]1c1ccc([N+](=O)[O-])cc1C(=O)N2CCCBr)OCO3 | < 10 nM | < 10 nM | < 10 nM | < 10 nM | < 10 nM | < 10 nM | < 10 nM | < 10 nM |
|  |  |  |  |  | ++ | CN1C(=O)c2cc([N+](=O)[O-])ccc2[C@H]2C(=O)c3cc4c(cc3[C@H]21)OCO4 | 50 nM | 14 nM | 158 nM | 33 nM | 24 nM | 26 nM | 107 nM | 30 nM |
